In patent US6472348B1, “Pyridone derivatives and herbicides” (Kumiai Chemical Industry Co., Ltd., priority 1996, dated 2002):

Columns and labels:
Digitaria ciliaris (Di) = experiment: Test Example 2: herbicidal effects by upland field soil treatment; format: in vivo; conditions: 100 g of the active ingredient per 10 ares;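 note: grade of growth control; 5 = at least 90%; 4 = 70 to 90%; 3 = 50 to 70%; 2 = 30 to 50%; 1 = 10 to 30%; 0 = under 10%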
Excerpt: (§1) (Test on Herbicidal Effects by Upland Field Soil Treatment)

rice flatsedge (Ci) = experiment: as above; format: in vivo; conditions: 100 g of the active ingredient per 10 ares;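 note: grade of growth control; 5 = at least 90%; 4 = 70 to 90%; 3 = 50 to 70%; 2 = 30 to 50%; 1 = 10 to 30%; 0 = under 10%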
Excerpt: as §1

green foxtail (Se) = experiment: Test Example 7: crop plant selectivity by upland field soil treatment (corn), herbicidal effects; format: in vivo; parameters: scale not given here; conditions: 21st day after application
Procedure, shortened: (§2)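 Seeds of corn and of each weed species are sown in a pot of sand and covered with soil. The compound is applied, and the pots are kept in a greenhouse. On the 21st day, weed control and crop injury are judged by set criteria.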

[1] = test system: common lambsquarters (Ch); experiment: as above; format: in vivo; parameters: scale not given here; conditions: 21st day after application
Procedure, shortened: as §2

China jute (Ab) = experiment: as above; format: in vivo; parameters: scale not given here; conditions: 21st day after application
Procedure, shortened: as §2

pale smartweed (Po) = experiment: as above; format: in vivo; parameters: scale not given here; conditions: 21st day after application
Procedure, shortened: as §2

slender amaranth (Am) = experiment: as above; format: in vivo; parameters: scale not given here; conditions: 21st day after application
Procedure, shortened: as §2

wheat (Tr) [2] = experiment: Test Example 5: crop plant selectivity by upland field soil treatment (wheat), phytotoxicity; format: in vivo; parameters: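 grade of crop injury; 5 = at least 90%; 4 = 70 to 90%; 3 = 50 to 70%; 2 = 30 to 50%; 1 = 10 to 30%; 0 = under 10%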; conditions: 21st day after application
Procedure, shortened: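 Seeds sown in pots of sand and covered with soil. Soil treatment applied. Plants cultured in a greenhouse. Effects rated by standard scale after 21 days.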

barnyardgrass (Ec) = experiment: Test Example 1: herbicidal effects by paddy field soil treatment; format: in vivo; conditions: 100 g of the active ingredient per 10 ares, 21st day after the application, index 0-5 of Table 47;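 note: grade of growth control; 5 = at least 90%; 4 = 70 to 90%; 3 = 50 to 70%; 2 = 30 to 50%; 1 = 10 to 30%; 0 = under 10%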
Procedure, shortened: (§3)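 Flooded paddy-soil pots (3 cm water) sown after puddling/leveling; treatment 100 g a.i./10 ares; greenhouse culture; herbicidal effect rated visually on a scoring scale at 21 d post-application.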

monochoria (Mo) = experiment: as above; format: in vivo; conditions: 100 g of the active ingredient per 10 ares, 21st day after the application, index 0-5 of Table 47;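 note: grade of growth control; 5 = at least 90%; 4 = 70 to 90%; 3 = 50 to 70%; 2 = 30 to 50%; 1 = 10 to 30%; 0 = under 10%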
Procedure, shortened: as §3

bulrush (Sc) = experiment: as above; format: in vivo; conditions: 100 g of the active ingredient per 10 ares, 21st day after the application, index 0-5 of Table 47
Procedure, shortened: as §3

wheat (Tr) [3] = experiment: Test Example 9: crop plant selectivity by upland field foliage treatment (wheat), phytotoxicity; conditions: dose 1.6 g ai/10a, 14th day after treatment
Procedure, shortened: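 Sand-filled pot, wheat + weeds co-sown; greenhouse 2 wk, then foliage treatment; greenhouse culture continued; visual scoring of weed control and crop injury at 14 d post-treatment per grading scale.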

[4] = evaluated on the 21st day after application
[5] = 21st day after the application, index 0-5 of Table 47

| Structure (SMILES) | Herbicidal effects Di (Digitaria ciliaris (Di); [4]) | Herbicidal effects Ci (rice flatsedge (Ci); [4]) | Herbicidal effects Se (green foxtail (Se); dose 6.3 g ai/10a) | Herbicidal effects Ch ([1]; dose 6.3 g ai/10a) | Herbicidal effects Ab (China jute (Ab); dose 6.3 g ai/10a) | Herbicidal effects Po (pale smartweed (Po); dose 6.3 g ai/10a) | Herbicidal effects Am (slender amaranth (Am); dose 6.3 g ai/10a) | Phytotoxicity Tr (wheat (Tr) [2]; dose 6.3 g ai/10a) | Herbicidal effects Ec (barnyardgrass (Ec)) | Herbicidal effects Mo (monochoria (Mo)) | Herbicidal effects Sc (bulrush (Sc)) | Phytotoxicity Tr (wheat (Tr) [3]) | Herbicidal effects Di (Digitaria ciliaris (Di); [5]) | Herbicidal effects Ci (rice flatsedge (Ci); [5]) | Herbicidal effects Se (green foxtail (Se); dose 1.6 g ai/10a) | Herbicidal effects Ch ([1]; dose 1.6 g ai/10a) | Herbicidal effects Ab (China jute (Ab); dose 1.6 g ai/10a) | Herbicidal effects Po (pale smartweed (Po); dose 1.6 g ai/10a) | Herbicidal effects Am (slender amaranth (Am); dose 1.6 g ai/10a) | Phytotoxicity Tr (wheat (Tr) [2]; dose 1.6 g ai/10a) |
| --- | --- | --- | --- | --- | --- | --- | --- | --- | --- | --- | --- | --- | --- | --- | --- | --- | --- | --- | --- | --- |
| C=CC(C)Oc1cc(-c2ccc(C(F)(F)F)n(C)c2=O)c(F)cc1Cl (stereo not shown) [Compound 1-182] | 5 | 5 | 5 | 5 | 5 | 5 | 5 | 1 | 5 | 5 | 5 | 1 |  |  |  |  |  |  |  |  |
| CC(C)Sc1cc(-c2ccc(C(F)(F)F)n(C)c2=O)c(F)cc1Cl [1-43] |  |  | 5 | 5 | 4 | 5 | 5 | 1 | 5 | 5 | 5 | 2 | 5 | 5 |  |  |  |  |  |  |
| CCCc1cc2c(-c3ccc(C(F)(F)F)n(C)c3=O)c(F)cc(Cl)c2o1 [Compound 4-3] | 5 | 5 | 5 | 5 | 5 | 5 | 5 | 2 | 5 | 5 | 5 | 2 |  |  |  |  |  |  |  |  |
| CCON=Cc1cc(-c2ccc(C(F)(F)F)n(C)c2=O)c(F)cc1Cl [Compound 1-187] | 5 | 5 | 5 | 5 | 5 | 5 | 5 | 1 | 5 | 5 | 5 | 2 |  |  |  |  |  |  |  |  |
| C=CC(O)c1cc(-c2ccc(C(F)(F)F)n(C)c2=O)c(F)cc1Cl (stereo not shown) [Compound 1-197] | 5 | 5 | 5 | 5 | 5 | 5 | 5 | 1 | 5 | 5 | 5 | 2 |  |  |  |  |  |  |  |  |
| COCSc1cc(-c2ccc(C(F)(F)F)n(C)c2=O)c(F)cc1Cl [1-91] |  |  | 5 | 5 | 5 | 5 | 5 |  | 5 | 5 | 5 | 2 | 5 | 5 | 5 | 5 | 5 | 5 | 5 | 1 |
| C#CC(O)c1cc(-c2ccc(C(F)(F)F)n(C)c2=O)c(F)cc1Cl (stereo not shown) [Compound 1-202] | 5 | 5 |  |  |  |  |  |  | 5 | 5 | 5 | 2 |  |  | 5 | 5 | 5 | 5 | 5 | 1 |
| CCOC(=O)c1cc(-c2ccc(C(F)(F)F)n(C)c2=O)c(F)cc1Cl [1-65] |  |  | 5 | 5 | 5 | 5 | 5 | 1 | 5 | 5 | 5 | 2 | 5 | 5 | 5 | 5 | 5 | 5 | 5 | 0 |
| COCc1cc2c(-c3ccc(C(F)(F)F)n(C)c3=O)c(F)cc(Cl)c2o1 [Compound No. 4-4, 3-(7-chloro-5-fluoro-2-methoxymethylbenzofuran-4-yl)-1-methyl-6-trifluoromethyl-2-(1H)-pyridone] | 5 | 5 | 5 | 5 | 5 | 5 | 5 |  | 5 | 5 | 5 |  |  |  | 5 | 5 | 5 | 5 | 5 | 2 |
| C=CCN1C(=O)COc2cc(Cl)c(-c3ccc(C(F)(F)F)n(C)c3=O)cc21 [Compound 2-26] | 5 | 5 | 5 | 5 | 5 | 5 | 5 | 1 | 5 | 5 | 5 | 2 |  |  |  |  |  |  |  |  |
| C=CCOc1cc(-c2ccc(C(F)(F)F)n(C)c2=O)c(F)cc1Cl [1-16] |  |  | 5 | 5 | 5 | 5 | 5 | 1 | 5 | 5 | 5 | 2 | 5 | 5 | 5 | 5 | 5 | 5 | 5 | 1 |
| C#CCOc1cc(-c2ccc(C(F)(F)F)n(C)c2=O)c(F)cc1Cl [1-18] |  |  | 5 | 5 | 5 | 5 | 5 |  | 5 | 5 | 5 |  | 5 | 5 | 5 | 5 | 5 | 5 | 5 | 2 |
| C#CCn1c(=O)sc2cc(F)c(-c3ccc(C(F)(F)F)n(C)c3=O)cc21 [Compound No. 3-1, 3-[6-fluoro-3-(2-propynyl)-benzothiazolin-2-on-5-yl]-1-methyl-6-trifluoromethyl-2(1H)-pyridone] | 5 | 5 | 5 | 5 | 5 | 5 | 5 | 1 | 5 | 5 | 5 |  |  |  | 5 | 5 | 5 | 5 | 5 |  |
| Cn1c(C(F)(F)F)ccc(-c2cc(OCC(F)(F)F)c(Cl)cc2F)c1=O [1-155] |  |  | 5 | 5 | 5 | 5 | 5 | 2 | 5 | 5 | 5 |  | 5 | 5 | 5 | 5 | 5 | 5 | 5 | 1 |
| COc1cc(-c2ccc(C(F)(F)F)n(C)c2=O)c(F)cc1Cl [1-15] |  |  |  |  |  |  |  |  | 5 | 5 | 5 |  | 5 | 5 | 5 | 5 | 5 | 5 | 5 | 2 |
| C#CC(C)Oc1cc(-c2ccc(C(F)(F)F)n(C)c2=O)c(F)cc1Cl (stereo not shown) [1-17] |  |  | 5 | 5 | 4 | 5 | 5 |  | 5 | 5 | 5 |  | 5 | 5 | 5 | 5 | 5 | 5 | 5 | 1 |
